“Also recorded” adds a separate entry of the source. Where two headings read alike, the source gives them in different places.
Tests used:
[1] = in vitro; format: cell-based; settings: human
Protocol: Human hepatocellular carcinoma (HepG2) and Chinese Hamster Ovary (CHO-K1) cells obtained from the American Type Culture Collection (Manassas, VA, USA) were cultured in Eagle’s medium (MEM, Gibco®, Waltham, MA, USA) containing 10% fetal bovine serum (FBS) plus 100 µg/mL streptomycin and 100 µg/mL penicillin at 37 °C in a 5% CO2 atmosphere. Logarithmic-phase cells were used in all the experiments.
Fresh HepG2 and CHO-K1 cells were seeded at a density of 1 × 10^4/well. […] Briefly, after treatment, the culture medium was replaced by 90 μL fresh culture medium and 10 μL WST-1 reagent and incubated at 37 °C and 5% CO2 for 3 h. The absorbance was then measured at 440 nm according to the kit protocol.

[2] = tested on: P. falciparum parasites (W2 clone) chloroquine-resistant; assay: Antiplasmodial activity, anti-HRPII assay; format: cell-based, Plasmodium falciparum; settings: for SI: LC50 (HepG2)/EC50 (P. falciparum); for EC50: P. falciparum W2 clone, 24 h at 37 °C, read-out: EC50; for Antiplasmodial Activity: summarized outcome
Source text: P. falciparum W2 clone was maintained in continuous culture as previously described. […] Prior to testing, the ring-stage parasites were synchronized using sorbitol.
The test quantification was read at 450 nm on a spectrophotometer (SpectraMax340PC384, Molecular Devices Sunnyvale, CA, USA), and the drug activity was expressed as the half-maximal inhibitory concentration (EC50) compared to the drug-free controls using the curve-fitting software Origin 8.0 (OriginLab Corporation, Northampton, MA, USA).

[3] = tested on: Salmonella enterica serovar Typhimurium TA100; assay: Salmonella/microsome assay, TA100
[4] = tested on: Salmonella enterica serovar Typhimurium TA98; assay: Salmonella/microsome assay, TA98
Protocol: (§1) Salmonella enterica serovar Typhimurium (S. typhimurium) strains TA97, TA98, TA100, TA104 and TA102 from the authors’ stock were used as described in the mutagenicity assay.
(§2) To determine the cytotoxic effects, after 30 min pre-incubation, the assay mixtures were diluted in 0.9% NaCl (w/v) to obtain a suspension containing 2 × 10^2 cells/mL. […] The plates were then incubated at 37 °C for 24 h and the colonies counted. All the experiments were conducted in triplicate and were repeated at least twice. Statistical differences between the groups were analyzed by a two-way ANOVA (p < 0.05) and Tukey’s post hoc test.

[5] = tested on: Salmonella enterica serovar Typhimurium TA104; assay: Salmonella/microsome assay, TA104
Protocol: as §1, §2

[6] = Salmonella/microsome assay, TA104; settings: Salmonella enterica serovar Typhimurium, S. typhimurium TA104 with S9 mix, LC50 (bacterial cytotoxicity) TA104, presence of S9 mix
Protocol: as §1, §2

[7] = tested on: HepG2 cells; assay: In vitro micronuclei assay, HepG2; format: cell-based, human; settings: HepG2; 3 h of exposure
Protocol: (§3) Fresh HepG2 and CHO-K1 cells were seeded at the density of 1 × 10^5 cells/mL into 24-well plates (1 mL/per well). The compounds 13 (a–d) were then added to the medium to final concentrations of 500, 1000 and 2000 µM and incubation continued for 3 h or 24 h. DMSO 10% was used as the negative control, and, BaP (80 µM) for HepG2 and MMC (5 µM) for CHO-K1 were the positive controls. After exposure to the compounds, the cells were incubated for more than 24 h under growth conditions before quantification of the micronuclei and cytotoxicity. The cytogenetic studies were carried out in triplicate as described previously (see [51]). In order to determine the mitotic index and the number of cells with micronuclei, the medium was replaced by a cold methanol-glacial acetic acid (3:1) fixative for 30 min, and the cells then rinsed with distilled water for 2 min and air dried. The fixed cells were stained with 4,6-diamidino-2-phenylindole (DAPI) ([…]) dissolved in McIlvaine buffer (0.1 M citric acid plus 0.2 M Na2HPO4, pH 7.0) for 60 min, washed with McIlvaine buffer for 5 min, briefly rinsed with distilled water and mounted in glycerol. To determine the mitotic index and the number of cells with micronuclei, 1000 cells per well (3000 cells per concentration) were analyzed under a fluorescence microscope. The results for micronuclei were presented as the percentage of cells containing micronuclei in the 3000 cells/concentration group analyzed. Cells that glowed brightly and had homogenous nuclei were considered as having normal phenotypic morphology. Apoptotic nuclei were identified by the condensed chromatin at the periphery of the nuclear membrane or by fragmented nuclear body morphology. Necrotic cells presented chromatin forms with irregularly shaped aggregates, a pyknotic nucleus (shrunken and darkly stained) and cell membrane disruption, with cellular debris spilled into the extracellular milieu. Once again, 3000 cells were counted and the percentage of viable cells was evaluated, discounting apoptotic and necrotic cells. Statistical differences between the groups were analyzed by two-way ANOVA (p < 0.01) and Tukey’s post hoc test.

[8] = tested on: S. typhimurium TA97, TA98, TA100, TA102 and TA104 strains; assay: Salmonella/microsome assay, overall outcome; settings: all strains, −S9 and +S9; summarized outcome
Protocol: The mutagenicity reverse mutation test was carried out to investigate the potential of 13 (a–d) to induce genetic mutation in S. typhimurium TA97, TA98, TA100, TA102 and TA104 strains. The test was carried out according to the pre-incubation method, both in the absence and presence of a metabolic activation system (4% S9 mix, Aroclor-pre-induced, from Moltox Inc., Boone, NC, USA). DMSO 10% served as the negative control while known mutagens were used as the positive control substances. […] A dose-finding test was carried out with and without the metabolic activation system (S9 mix) for each tester strain.
For the assays without metabolic activation, 0.5 mL of 0.1 mol/L sodium-phosphate buffer (pH 7.4) was added, and for the assays in the presence of metabolic activation, 0.5 mL S9 mix was mixed with 0.1 mL culture medium (2 × 10^8 cells/mL) plus 0.1 mL of each compound solutions. The mixtures were incubated in a shaker at 37 °C (pre-incubation). After 30 min pre-incubation under light protection, the mixture was added to and mixed with 2 mL top agar containing 0.05 mmol/L L-histidine and D-biotin for the S. typhimurium strains. Each of these was then spread on a minimum glucose agar plate. After the top agar solidified, the plates were incubated at 37 °C for 60–72 h. Each tester strain was assayed in triplicate, and the number of revertant colonies was counted for each tester strain and treatment group [58].

[9] = tested on: trypomastigote forms of T. cruzi (Y strain); assay: Trypanocidal activity on bloodstream trypomastigotes; format: cell-based, Trypanosoma cruzi; settings: for EC50: Trypanosoma cruzi, bloodstream trypomastigotes, Y strain, 24 h at 37 °C
Protocol: Bloodstream trypomastigote forms (BT) of the Y strain were obtained from infected albino Swiss mice at the peak of parasitemia, isolated by differential centrifugation and resuspended in DMEM to a parasite concentration of 10^7 cells/mL in the presence of 10% of mouse blood. This suspension (100 µL) was added in the same volume of 13 (a–d) and 14 (a–d) previously prepared at twice the desired final concentrations.

[10] = tested on: CHO-K1 cells; format: cell-based, Chinese Hamster
Protocol: as §3

[11] = Plasmodium falciparum, W2, 24 h

Q: Which results are given for `CC(=O)Nc1ccccc1C(F)(F)C(=O)NCC[C@@H]1C[C@H](CC(=O)OC(C)(C)C)OC(C)(C)O1` [Compound 13a, tert-Butyl 2-((4R,6R)-6-(2-(2-(2-acetamidophenyl)-2,2-difluoroacetamido)ethyl)-2,2-dimethyl-1,3-dioxan-4-yl)acetate]?
A: CC50 at 24 h [1]: > 1000 µM; SI [2]: Inactive; EC50 [2, 11]: > 62 µM; Antiplasmodial Activity [2]: No; revertant His+ colonies TA100 ([3]; +S9, 3 µM): 211 ± 37; revertant His+ colonies TA100 ([3]; +S9, 15 µM): 223 ± 15; revertant His+ colonies TA100 ([3]; +S9, 30 µM): 241 ± 36; revertant His+ colonies TA100 ([3]; +S9, 150 µM): 244 ± 14; revertant His+ colonies TA100 ([3]; +S9, 300 µM): 270 ± 45; revertant His+ colonies TA100 ([3]; +S9, 1500 µM): 290 ± 31; revertant His+ colonies TA100 ([3]; −S9, 3 µM): 117 ± 43; revertant His+ colonies TA100 ([3]; −S9, 15 µM): 136 ± 13; revertant His+ colonies TA100 ([3]; −S9, 30 µM): 139 ± 13; revertant His+ colonies TA100 ([3]; −S9, 150 µM): 142 ± 5; revertant His+ colonies TA100 ([3]; −S9, 300 µM): 162 ± 37; revertant His+ colonies TA100 ([3]; −S9, 1500 µM): 179 ± 34; revertant His+ colonies TA98 ([4]; +S9, 3 µM): 25 ± 8; revertant His+ colonies TA98 ([4]; +S9, 15 µM): 25 ± 4; revertant His+ colonies TA98 ([4]; +S9, 30 µM): 26 ± 5; revertant His+ colonies TA98 ([4]; +S9, 150 µM): 27 ± 1; revertant His+ colonies TA98 ([4]; +S9, 300 µM): 33 ± 1; revertant His+ colonies TA98 ([4]; +S9, 1500 µM): 36 ± 3; revertant His+ colonies TA98 ([4]; −S9, 3 µM): 24 ± 3; revertant His+ colonies TA98 ([4]; −S9, 15 µM): 29 ± 6; revertant His+ colonies TA98 ([4]; −S9, 30 µM): 31 ± 8; revertant His+ colonies TA98 ([4]; −S9, 150 µM): 32 ± 3; revertant His+ colonies TA98 ([4]; −S9, 300 µM): 52 ± 4; revertant His+ colonies TA98 ([4]; −S9, 1500 µM): 61 ± 5; mutagenicity to TA98 ([4]; −S9, at concentrations above 300 µM): significant mutagenicity; also recorded: enhanced the number of revertants; revertant His+ colonies TA104 ([5]; +S9, 3 µM): 390 ± 49; revertant His+ colonies TA104 ([5]; +S9, 15 µM): 417 ± 15; revertant His+ colonies TA104 ([5]; +S9, 30 µM): 467 ± 19; revertant His+ colonies TA104 ([5]; +S9, 150 µM): 330 ± 9; revertant His+ colonies TA104 ([5]; +S9, 300 µM): 268 ± 37; revertant His+ colonies TA104 ([5]; +S9, 1500 µM): Cytotoxic; revertant His+ colonies TA104 ([5]; −S9, 3 µM): 264 ± 27; revertant His+ colonies TA104 ([5]; −S9, 15 µM): 307 ± 18; revertant His+ colonies TA104 ([5]; −S9, 30 µM): 314 ± 26; revertant His+ colonies TA104 ([5]; −S9, 150 µM): 315 ± 36; revertant His+ colonies TA104 ([5]; −S9, 300 µM): 316 ± 33; revertant His+ colonies TA104 ([5]; −S9, 1500 µM): 350 ± 21; CC50 at 30 min [6]: 1280 ± 21.1 µM; cytotoxicity (survival rate) in micronuclei assay [7]: significant cytotoxic effects upon 1000 µM; micronuclei formation (genotoxicity) [7]: did not induce micronuclei formation; also recorded: non-genotoxic; Bacterial Mutagenicity [8]: Yes; EC50 [9]: > 500 µM; micronuclei formation (genotoxicity) [10]: genotoxic

Q: What does the source list for `CC(=O)Nc1ccc(Cl)cc1C(F)(F)C(=O)NCC[C@@H]1C[C@H](CC(=O)OC(C)(C)C)OC(C)(C)O1` [Compound 13c, tert-Butyl 2-((4R,6R)-6-(2-(2-(2-acetamido-5-chlorophenyl)-2,2-difluoroacetamido)ethyl)-2,2-dimethyl-1,3-dioxan-4-yl)acetate]?
A: CC50 at 24 h [1]: > 1000 µM; SI [2]: >85; EC50 [2]: 11.8 ± 2 µM; EC50 [2, 11]: < 14 µM; Antiplasmodial Activity [2]: Yes; revertant His+ colonies TA100 ([3]; +S9, 3 µM): 223 ± 39; revertant His+ colonies TA100 ([3]; +S9, 15 µM): 223 ± 47; revertant His+ colonies TA100 ([3]; +S9, 30 µM): 228 ± 17; revertant His+ colonies TA100 ([3]; +S9, 150 µM): 278 ± 5; revertant His+ colonies TA100 ([3]; +S9, 300 µM): 286 ± 18; revertant His+ colonies TA100 ([3]; +S9, 1500 µM): 300 ± 15; revertant His+ colonies TA100 ([3]; −S9, 3 µM): 135 ± 38; revertant His+ colonies TA100 ([3]; −S9, 15 µM): 135 ± 21; revertant His+ colonies TA100 ([3]; −S9, 30 µM): 135 ± 30; revertant His+ colonies TA100 ([3]; −S9, 150 µM): 140 ± 31; revertant His+ colonies TA100 ([3]; −S9, 300 µM): 164 ± 17; revertant His+ colonies TA100 ([3]; −S9, 1500 µM): 168 ± 15; revertant His+ colonies TA98 ([4]; +S9, 3 µM): 34 ± 4; revertant His+ colonies TA98 ([4]; +S9, 15 µM): 35 ± 3; revertant His+ colonies TA98 ([4]; +S9, 30 µM): 39 ± 3; revertant His+ colonies TA98 ([4]; +S9, 150 µM): 37 ± 7; revertant His+ colonies TA98 ([4]; +S9, 300 µM): 47 ± 4; revertant His+ colonies TA98 ([4]; +S9, 1500 µM): 49 ± 5; revertant His+ colonies TA98 ([4]; −S9, 3 µM): 21 ± 2; revertant His+ colonies TA98 ([4]; −S9, 15 µM): 21 ± 5; revertant His+ colonies TA98 ([4]; −S9, 30 µM): 21 ± 3; revertant His+ colonies TA98 ([4]; −S9, 150 µM): 21 ± 2; revertant His+ colonies TA98 ([4]; −S9, 300 µM): 21 ± 1; revertant His+ colonies TA98 ([4]; −S9, 1500 µM): 23 ± 4; revertant His+ colonies TA104 ([5]; +S9, 3 µM): 384 ± 34; revertant His+ colonies TA104 ([5]; +S9, 15 µM): 401 ± 31; revertant His+ colonies TA104 ([5]; +S9, 30 µM): 445 ± 49; revertant His+ colonies TA104 ([5]; +S9, 150 µM): 305 ± 7; revertant His+ colonies TA104 ([5]; +S9, 300 µM): 297 ± 4; revertant His+ colonies TA104 ([5]; +S9, 1500 µM): Cytotoxic; CC50 ([5]; read-out: LC50 (bacterial cytotoxicity) TA104, presence of S9 mix): > 1200 µM; revertant His+ colonies TA104 ([5]; −S9, 3 µM): 195 ± 9; revertant His+ colonies TA104 ([5]; −S9, 15 µM): 199 ± 7; revertant His+ colonies TA104 ([5]; −S9, 30 µM): 192 ± 3; revertant His+ colonies TA104 ([5]; −S9, 150 µM): 201 ± 17; revertant His+ colonies TA104 ([5]; −S9, 300 µM): 206 ± 8; revertant His+ colonies TA104 ([5]; −S9, 1500 µM): 241 ± 10; CC50 at 30 min [6]: 1390 ± 14.8 µM; micronuclei formation (genotoxicity) [7]: did not induce micronuclei formation; Bacterial Mutagenicity [8]: not mutagenic and No; SI ([9]; LC50 (cardiac cells)/EC50 (trypomastigotes)): >17.7; EC50 [9]: 28.2 ± 0.75 µM; mitotic index [10]: did not affect the mitotic index

Source: article PMC10301432, “Antiplasmodial, Trypanocidal, and Genotoxicity In Vitro Assessment of New Hybrid α,α-Difluorophenylacetamide-statin Derivatives” (Pharmaceuticals, 2023)
